Data as given in patent US7928137B2, “Meta-benzamidine derivatives as serine protease inhibitors” (Tularik Limited, priority 1997, dated 2011).

Columns and labels:
plasma [1] = assay: Kaolin Activated Partial Thromboplastin Time Test (APTT); type: biochemical; conditions: 37°
Procedure: Kaolin Activated Partial Thromboplastin Time Test Protocol
(§1) Venous blood was collected into 3.2% (0.109 m) trisodium citrate vacutainer tubes at 1 volume of anticoagulant to nine volumes of blood.
(§2) The blood cells were separated by centrifugation at 700 g for ten minutes to yield plasma, which was frozen at […] until required.
(§3) To perform the test, 100 μl of plasma was pipetted into in a glass test tube, 1 μl of test compound in DMSO was added, and allowed to warm to 37° over two minutes.
100 μl of APTT reagent resuspended in Owren's buffer (Thrombosis Reference Centre University of Manchester, withington Hospital, Manchester) was added, mixed thoroughly, and 100 μl of prewarmed kaolin suspension in Owren's buffer added.
This mixture was incubated for ten minutes at 37°, with regular gentle mixing by tilting through a 90° angle, three times sequentially at one minute intervals to maintain the kaolin in suspension.
After ten minutes 100 μl of 25 mM calcium chloride solution was added, the suspension redispersed by mixing as above and the time to clot formation recorded.
(§4) Data from a series of observations and test compound concentrations are analysed by a SAS statistical analysis program and a CT2 (Concentration required to double clotting time) for each compound is generated.

human factor Xa = human factor Xa (Homo sapiens, UniProt P00742); assay: Enzyme inhibition assay, factor Xa (chromogenic substrate pefachrome-FXA); conditions: for FXa pKi: room temperature, 0.1M phosphate buffer, pH7.4
plasma [2] = assay: Partial Thromboplastin Time Test (PT, tissue thromboplastin reagent); type: biochemical; conditions: Manchester (tissue thromboplasin) reagent, 37°
Procedure: Partial Thromboplastin Time Test Protocol
as §1, §2, §3
100 μl of warm (37°) Manchester (tissue thromboplasin) reagent (Helena Biosciences, UK) was added, allowed to equilibrate for sixty seconds. 100 μl of warm (37°) 25 mM calcium chloride solution was added to initiate clotting.
The test tube was tilted three times through a 90° angle every five seconds to mix the reagents and the time to clot formation recorded.
as §4

thrombin = thrombin (Homo sapiens, UniProt P00734); assay: Enzyme inhibition assay, thrombin (chromogenic substrate pefachrome-TH); conditions: for thrombin pKi: room temperature, 0.1M phosphate buffer, pH7.4
trypsin = trypsin (Homo sapiens, UniProt P07477); assay: Enzyme inhibition assay, trypsin (chromogenic substrate pefachrome-TRY); conditions: for trypsin pKi: room temperature, 0.1M phosphate buffer, pH7.4

human factor Xa, sequence (P00742 235-488 limits assumed): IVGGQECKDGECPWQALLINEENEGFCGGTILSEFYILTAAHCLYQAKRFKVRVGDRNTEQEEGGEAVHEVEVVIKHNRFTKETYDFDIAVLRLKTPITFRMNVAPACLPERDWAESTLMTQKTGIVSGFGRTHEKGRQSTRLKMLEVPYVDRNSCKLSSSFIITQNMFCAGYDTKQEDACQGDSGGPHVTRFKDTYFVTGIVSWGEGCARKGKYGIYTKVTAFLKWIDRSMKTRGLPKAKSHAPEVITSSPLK
human factor Xa, sequence (P00742 41-179 partner limits assumed): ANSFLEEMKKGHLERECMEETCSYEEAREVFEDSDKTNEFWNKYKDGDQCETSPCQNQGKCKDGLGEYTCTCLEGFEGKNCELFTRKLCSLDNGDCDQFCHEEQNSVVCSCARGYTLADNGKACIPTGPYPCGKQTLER

| Ki (human factor Xa) [µM] | Ki (thrombin) [µM] | Ki (trypsin) [µM] | Compound | APTT CT2 (Concentration required to double clotting time) (plasma [1]) [µM] | FXa pKi (human factor Xa) | PT CT2 (Concentration required to double clotting time) (plasma [2]) [µM] | thrombin pKi (thrombin) | trypsin pKi (trypsin) |
| --- | --- | --- | --- | --- | --- | --- | --- | --- |
| 0.0141 | 1.02 | 0.245 | N=C(N)c1ccc(N)c(C(=O)N[C@@H](C(=O)NCC2CCC(CN)CC2)c2ccccc2)c1 (mixture of isomers) [Example 89, 2-Amino-5-amidinobenzoyl-D-phenylglycine-4-amlnomethylcyclohexyl methylamide] | – | – | – | – | – |
| 0.162 | 17 | 1.45 | CC(C)[C@@H](NC(=O)[C@H](NC(=O)c1cccc(C(=N)N)c1)c1ccccc1)C(N)=O [Example 37, 3-Amidino-benzoyl-D-phenylglycinyl-D-valine amide] | 36 | – | 15 | – | – |
| 0.0646 | 1.17 | 1.62 | N=C(N)c1cccc(C(=O)N[C@@H](C(=O)NCc2cccc3ccccc23)c2ccccc2)c1 [Example 65, 3-Amidino-benzoyl-D-phenylglycine-1-naphthylmethylamide] | – | – | – | – | – |
| 0.269 | 6.92 | 1.86 | C[C@@H](NC(=O)[C@H](NC(=O)c1cccc(C(=N)N)c1)c1ccccc1)c1cccc2ccccc12 [Example 80, 3-Amidino-benzoyl-D-phenylglycine-R-1-(1-naphthyl)ethylamide] | – | – | – | – | – |
| 0.0105 | 9.12 | 2.45 | CC(=N)N1CCC(CCOC(=O)[C@H](NC(=O)c2cccc(C(=N)N)c2)c2ccccc2)CC1 [Example 84, 3-Amidino-benzoyl-D-phenylglycine-2-(N-acetimino-4-piperidinyl) ethyl ester] | 5.8 | – | 1.9 | – | – |
| 0.024 | – | 1.29 | N=C(N)c1cccc(C(=O)N[C@@H](C(=O)OCCC2CCN(C(=N)N)CC2)c2ccccc2)c1 [Example 87, 3-Amidino-benzoyl-D-phenylglycine-2-(N-amidino-4-piperidinyl) ethyl ester] | 14 | – | 4.2 | 5.10 | – |

Continued, compound first:

| Compound | Ki (human factor Xa) [µM] | Ki (thrombin) [µM] | Ki (trypsin) [µM] | APTT CT2 (Concentration required to double clotting time) (plasma [1]) [µM] | FXa pKi (human factor Xa) | PT CT2 (Concentration required to double clotting time) (plasma [2]) [µM] | thrombin pKi (thrombin) | trypsin pKi (trypsin) |
| --- | --- | --- | --- | --- | --- | --- | --- | --- |
| 3-Amidino-benzoyl-D-phenylglycinyl-D-2-naphthylalanine amide [Example 36] | – | – | – | 9.4 | 7.12 | 9 | 6.24 | 6.16 |
| 3-Amidino-benzoyl-D-phenylglycinyl-D-2-naphthylalaninyl N-methylglycine [Example 32] | – | – | – | 7.4 | 7.39 | 5.6 | 6.09 | 5.65 |
| 3-Amidino-benzoyl-D-phenylglycinyl-D-2-naphthylalaninyl-D-proline [Example 33] | – | – | – | – | 7.50 | 7.1 | 6.14 | 6.39 |
| 3-Amidino-benzoyl-D-phenylglycinyl-D-2-naphthylalaninyl-glycine [Example 31] | – | – | – | 3.7 | 6.80 | 3.2 | 6.98 | 5.56 |
| 3-Amidino-benzoyl-D-phenylglycinyl-D-phenylalanine-N-pyrrolidinamide [Example 66] | – | – | – | 4.5 | 6.94 | 4.6 | 6.66 | 6.55 |
| N=C(N)c1cccc(C(=O)NC(C(=O)NCC2CCC(CN)CC2)c2ccc3ccccc3c2)c1 (racemic) [Example 12, 3-Amidino-benzoyl-DL-2-naphthylglycine 4-aminomethylcyclohexyl methylamide] | 0.407 | 5.37 | 0.794 | 6.5 | – | 3.4 | – | – |
| N=C(N)c1cccc(C(=O)N[C@@H](C(=O)N2CCC(C(=O)c3ccccc3)CC2)c2ccccc2)c1 [Example 63, 3-Amidino-benzoyl-D-phenylglycine-4-benzoyl piperidinamide] | – | 1.1 | 0.288 | – | – | 3.7 | – | – |
| Cc1ccc(CNC(=O)[C@H](NC(=O)c2cccc(C(=N)N)c2)c2ccccc2)cc1 [Example 64, 3-Amidino-benzoyl-D-phenylglycine-4-methylbenzylamide] | 0.0871 | – | 1.23 | 7.6 | – | 8.3 | 5.72 | – |
| N=C(N)c1cccc(C(=O)N[C@@H](C(=O)NC2C3CC4CC(C3)CC2C4)c2ccccc2)c1 (stereo partly drawn) [Example 68, 3-Amidino-benzoyl-D-phenylglycine-2adamantylamide] | 0.0977 | 4.79 | 2.57 | – | – | 17 | – | – |
